Assay results: ChEMBL document CHEMBL1147684, “Nitrogen-bridged substituted 8-arylquinolines as potent PDE IV inhibitors” (Bioorg Med Chem Lett, 2006)

Experiments:
[1] = molecular target: T1, 3',5'-cyclic-AMP phosphodiesterase 4B (Homo sapiens, UniProt Q07343); assay: Ability to block TNFalpha release through inhibition of PDE4 in LPS-stimulated human whole blood; type: functional, tissue-based
[2] = molecular target: 3',5'-cyclic-AMP phosphodiesterase 4D (Homo sapiens, UniProt Q08499); assay: Inhibition of human GST-PDE4D
Sequence of 3',5'-cyclic-AMP phosphodiesterase 4D (Q08499 whole entry): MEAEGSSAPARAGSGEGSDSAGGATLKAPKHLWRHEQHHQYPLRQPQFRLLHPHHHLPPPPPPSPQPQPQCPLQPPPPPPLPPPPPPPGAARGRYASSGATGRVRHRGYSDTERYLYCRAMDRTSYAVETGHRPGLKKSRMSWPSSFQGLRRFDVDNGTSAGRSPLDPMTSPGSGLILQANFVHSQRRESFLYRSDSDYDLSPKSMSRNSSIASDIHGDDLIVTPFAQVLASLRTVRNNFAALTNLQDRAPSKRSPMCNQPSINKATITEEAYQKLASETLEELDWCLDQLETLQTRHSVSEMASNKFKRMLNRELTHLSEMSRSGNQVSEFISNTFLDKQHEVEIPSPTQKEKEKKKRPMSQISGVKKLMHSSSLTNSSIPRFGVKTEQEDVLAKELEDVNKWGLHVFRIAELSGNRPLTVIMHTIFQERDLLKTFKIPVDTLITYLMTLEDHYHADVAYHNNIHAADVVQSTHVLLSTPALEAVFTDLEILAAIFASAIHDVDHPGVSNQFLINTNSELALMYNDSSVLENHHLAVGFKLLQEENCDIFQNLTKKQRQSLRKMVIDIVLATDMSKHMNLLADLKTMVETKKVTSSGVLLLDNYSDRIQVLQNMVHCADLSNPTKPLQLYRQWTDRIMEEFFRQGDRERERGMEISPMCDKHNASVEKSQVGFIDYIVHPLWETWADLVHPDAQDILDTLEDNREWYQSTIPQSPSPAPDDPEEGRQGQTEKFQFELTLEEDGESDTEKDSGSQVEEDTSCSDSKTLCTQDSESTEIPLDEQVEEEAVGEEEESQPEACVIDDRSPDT

[3] = molecular target: 3',5'-cyclic-AMP phosphodiesterase 4C (Homo sapiens, UniProt Q08493); assay: Inhibition of human GST-PDE4C
Sequence of 3',5'-cyclic-AMP phosphodiesterase 4C (Q08493 whole entry): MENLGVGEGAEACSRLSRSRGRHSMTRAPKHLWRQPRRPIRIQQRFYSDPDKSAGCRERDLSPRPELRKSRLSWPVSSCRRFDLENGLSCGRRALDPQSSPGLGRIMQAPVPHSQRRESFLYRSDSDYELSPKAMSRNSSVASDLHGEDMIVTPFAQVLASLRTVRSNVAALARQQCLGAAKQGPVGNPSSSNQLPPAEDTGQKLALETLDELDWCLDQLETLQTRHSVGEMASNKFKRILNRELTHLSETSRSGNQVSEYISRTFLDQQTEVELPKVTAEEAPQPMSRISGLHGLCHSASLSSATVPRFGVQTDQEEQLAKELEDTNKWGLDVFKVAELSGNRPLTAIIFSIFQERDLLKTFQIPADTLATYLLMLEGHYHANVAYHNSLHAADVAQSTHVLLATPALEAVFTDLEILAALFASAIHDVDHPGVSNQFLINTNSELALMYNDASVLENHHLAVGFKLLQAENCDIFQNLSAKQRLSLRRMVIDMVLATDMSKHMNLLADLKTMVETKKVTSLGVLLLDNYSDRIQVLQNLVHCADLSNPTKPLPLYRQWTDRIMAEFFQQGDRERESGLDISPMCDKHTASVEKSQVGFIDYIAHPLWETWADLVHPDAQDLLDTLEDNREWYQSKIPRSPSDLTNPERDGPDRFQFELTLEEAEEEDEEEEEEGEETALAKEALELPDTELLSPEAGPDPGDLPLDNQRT

[4] = molecular target: 3',5'-cyclic-AMP phosphodiesterase 4A (Homo sapiens, UniProt P27815); assay: Inhibition of human GST-PDE4A
Sequence of 3',5'-cyclic-AMP phosphodiesterase 4A (P27815 whole entry): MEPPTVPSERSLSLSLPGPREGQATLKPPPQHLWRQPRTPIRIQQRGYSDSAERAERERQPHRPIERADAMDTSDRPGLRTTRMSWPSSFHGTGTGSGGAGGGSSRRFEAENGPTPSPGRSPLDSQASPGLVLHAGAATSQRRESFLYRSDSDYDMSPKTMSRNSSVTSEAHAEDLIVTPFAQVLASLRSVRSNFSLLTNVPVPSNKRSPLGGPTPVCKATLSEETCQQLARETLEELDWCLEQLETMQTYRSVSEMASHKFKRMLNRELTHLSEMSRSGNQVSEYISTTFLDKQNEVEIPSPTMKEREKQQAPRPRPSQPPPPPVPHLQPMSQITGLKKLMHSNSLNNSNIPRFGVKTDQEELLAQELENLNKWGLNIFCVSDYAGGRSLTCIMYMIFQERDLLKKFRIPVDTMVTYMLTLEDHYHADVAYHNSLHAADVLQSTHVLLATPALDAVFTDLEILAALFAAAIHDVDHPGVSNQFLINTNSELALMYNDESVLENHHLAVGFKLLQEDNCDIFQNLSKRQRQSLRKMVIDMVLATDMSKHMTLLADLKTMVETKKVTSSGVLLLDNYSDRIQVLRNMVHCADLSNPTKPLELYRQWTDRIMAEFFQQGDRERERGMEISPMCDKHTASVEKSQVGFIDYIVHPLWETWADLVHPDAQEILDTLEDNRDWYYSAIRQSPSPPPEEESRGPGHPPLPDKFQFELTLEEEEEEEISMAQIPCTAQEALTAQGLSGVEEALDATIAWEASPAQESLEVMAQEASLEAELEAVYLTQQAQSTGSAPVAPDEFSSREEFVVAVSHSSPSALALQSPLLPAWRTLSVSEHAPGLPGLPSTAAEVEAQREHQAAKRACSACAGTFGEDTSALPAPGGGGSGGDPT

[5] = molecular target: T1, 3',5'-cyclic-AMP phosphodiesterase 4B; assay: Inhibition of human GST-PDE4B
[6] = Oral bioavailability in rat; type: ADME, organism-based; settings: in vivo
[7] = Cmax in squirrel monkey; type: ADME, organism-based, Saimiri sciureus; settings: in vivo
Cavia porcellus [8] = assay: Inhibition of ovalbumin-induced bronchoconstriction in guinea pig at 30 ug/kg, ip; type: functional
[9] = Half life in iv dosed rat; type: ADME, organism-based; settings: in vivo
[10] = Half life in iv dosed squirrel monkey; type: ADME, organism-based, Saimiri sciureus; settings: in vivo
[11] = Oral bioavailability in squirrel monkey; type: ADME, organism-based, Saimiri sciureus; settings: in vivo
[12] = Cmax in rat; type: ADME, organism-based; settings: in vivo
Cavia porcellus [13] = assay: Inhibition of ovalbumin-induced bronchoconstriction in guinea pig at 1 mg/kg, ip; type: functional; settings: route intraperitoneal

T1 sequence (Q07343 whole entry): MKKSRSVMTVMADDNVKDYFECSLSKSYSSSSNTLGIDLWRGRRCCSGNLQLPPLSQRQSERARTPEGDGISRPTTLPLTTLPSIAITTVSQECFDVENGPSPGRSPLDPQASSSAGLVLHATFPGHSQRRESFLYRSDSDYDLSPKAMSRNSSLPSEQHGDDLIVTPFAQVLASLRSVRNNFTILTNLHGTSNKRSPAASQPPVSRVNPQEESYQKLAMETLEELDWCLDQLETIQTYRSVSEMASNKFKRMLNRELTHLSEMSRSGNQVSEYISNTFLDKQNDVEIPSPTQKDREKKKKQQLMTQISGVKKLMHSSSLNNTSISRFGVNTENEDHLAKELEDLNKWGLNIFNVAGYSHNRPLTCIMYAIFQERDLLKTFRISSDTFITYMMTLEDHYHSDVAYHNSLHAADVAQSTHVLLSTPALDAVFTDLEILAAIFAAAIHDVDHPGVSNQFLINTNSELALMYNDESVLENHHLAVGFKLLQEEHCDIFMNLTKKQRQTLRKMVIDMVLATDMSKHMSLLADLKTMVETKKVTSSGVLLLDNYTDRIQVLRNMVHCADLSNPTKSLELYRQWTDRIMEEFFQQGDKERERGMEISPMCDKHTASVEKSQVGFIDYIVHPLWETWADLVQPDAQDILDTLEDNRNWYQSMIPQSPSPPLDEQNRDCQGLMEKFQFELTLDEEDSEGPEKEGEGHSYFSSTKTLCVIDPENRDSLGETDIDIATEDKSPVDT

| Structure (SMILES) | IC50 [1] [nM] | IC50 [2] [nM] | IC50 [3] [nM] | IC50 [4] [nM] | IC50 [5] [nM] | bioavailability [6] [%] | Cmax [7] [nM] | inhibition in vivo at 0.03 mg/kg (Cavia porcellus [8]) [%] | half-life [9] [h] | half-life [10] [h] | bioavailability [11] [%] | Cmax [12] [nM] | inhibition in vivo at 1 mg/kg (Cavia porcellus [13]) [%] |
| --- | --- | --- | --- | --- | --- | --- | --- | --- | --- | --- | --- | --- | --- |
| CC(C)(c1cc(-c2cccc(C(=O)Nc3ccccc3)c2)c2ncccc2c1)S(C)(=O)=O | 7000 | 10 | 97 | 16 | 5.9 | – | – | – | – | – | – | – | – |
| CC(c1cccc(-c2cc(C(C)(C)S(C)(=O)=O)cc3cccnc23)c1)N(C(=O)c1ccc(C(C)(C)O)cc1)c1ccc(S(C)(=O)=O)cc1 (configuration not stated) | 270 | 0.5 | 5.9 | 1.5 | 0.4 | – | – | – | – | – | – | – | – |
| CC(c1cccc(-c2cc(C(C)(C)S(C)(=O)=O)cc3cccnc23)c1)N(C(=O)c1cccnc1)c1ccc(S(C)(=O)=O)cc1 (configuration not stated) | 210 | 1.7 | 14 | 2.1 | 0.7 | – | – | – | – | – | – | – | – |
| CC(c1cccc(-c2cc(C(C)(C)S(C)(=O)=O)cc3cccnc23)c1)N(C(=O)c1ccc(F)cc1)c1ccc(S(C)(=O)=O)cc1 (racemic) | 560 | 1.8 | 12 | 2.3 | 0.6 | 67 | 900 | 74 | 2 | 7 | 98 | 2700 | – |
| CC(C)NC(=O)N(Cc1cc(-c2cc(C(C)(C)S(C)(=O)=O)cc3cccnc23)ccc1Cl)c1ccc(S(C)(=O)=O)cc1 | 4000 | 10 | 70 | 15 | 4.4 | – | – | – | – | – | – | – | – |
| CC(C)NC(=O)N(Cc1cccc(-c2cc(C(C)(C)C#N)cc3cccnc23)c1)c1ccc(S(C)(=O)=O)cc1 | 140 | 0.1 | 1.7 | 0.1 | 0.1 | – | – | – | – | – | – | – | – |
| CC(C)(c1cc(-c2cccc(C(=O)Nc3ccncc3)c2)c2ncccc2c1)S(C)(=O)=O | 200 | 3 | 17 | 3.1 | 0.9 | – | – | – | – | – | – | – | – |
| CC(C)NC(=O)N(Cc1cc(-c2cc(C(C)(C)S(C)(=O)=O)cc3cccnc23)ccc1F)c1ccc(S(C)(=O)=O)cc1 | 50 | 0.8 | 6.4 | 0.6 | 0.3 | – | – | – | – | – | – | – | – |
| CC(c1cccc(-c2cc(C(C)(C)S(C)(=O)=O)cc3cccnc23)c1)N(C(=O)c1ccc(F)cc1)c1ccc(S(C)(=O)=O)cc1 (single isomer, unassigned; enantiomer B) | 250 | 0.7 | 7.5 | 1.8 | 0.5 | – | – | – | – | – | – | – | – |
| Cc1cc(C(=O)N(Cc2cccc(-c3cc(C(C)(C)C#N)cc4cccnc34)c2)c2ccc(S(C)(=O)=O)cc2)no1 | 30 | 0.1 | 0.9 | 0.3 | 0.1 | – | – | – | – | – | – | – | – |
| CC(C)(c1cc(-c2cccc(C(=O)Nc3c(Cl)cncc3Cl)c2)c2ncccc2c1)S(C)(=O)=O | 90 | 0.7 | 5.5 | 0.6 | 0.4 | – | – | – | – | – | – | – | – |
| CC(C)(c1cc(-c2cccc(C(N)=O)c2)c2ncccc2c1)S(C)(=O)=O | – | 74 | 490 | 78 | 40 | – | – | – | – | – | – | – | – |
| CC(=O)N(c1ccc(S(C)(=O)=O)cc1)C(C)c1cccc(-c2cc(C(C)(C)S(C)(=O)=O)cc3cccnc23)c1 (configuration not stated) | 2000 | 6.7 | 41 | 10 | 4.2 | – | – | – | – | – | – | – | – |
| COc1ccc([C@H](Cc2ccncc2)c2ccccc2)cc1OC1CCCC1 [CDP840] | – | – | – | – | – | – | – | – | – | – | – | – | 55 |
| CC(C)(C#N)c1cc(-c2cccc(CN(Cc3ccc(F)cc3)c3ccc(S(C)(=O)=O)cc3)c2)c2ncccc2c1 | 1800 | 0.5 | 9.5 | 1 | 0.1 | – | – | – | – | – | – | – | – |
| CC(c1cccc(-c2cc(C(C)(C)S(C)(=O)=O)cc3cccnc23)c1)N(C(=O)C1CC1)c1ccc(S(C)(=O)=O)cc1 (configuration not stated) | 800 | 1.4 | 17 | 1.6 | 0.6 | – | – | – | – | – | – | – | – |
| CC(C)OC(=O)N(Cc1cccc(-c2cc(C(C)(C)C#N)cc3cccnc23)c1)c1ccc(S(C)(=O)=O)cc1 | 80 | 0.3 | 4.2 | 0.3 | 0.3 | – | – | – | – | – | – | – | – |
| CC(C)(c1cc(-c2cccc(C(=O)Nc3ccc(S(C)(=O)=O)cc3)c2)c2ncccc2c1)S(C)(=O)=O | 140 | 2.8 | 26 | 3.5 | 0.5 | – | – | – | – | – | – | – | – |
| CC(C)NC(=O)N(Cc1cccc(-c2cc(C(C)(C)S(C)(=O)=O)cc3cccnc23)c1)c1ccc(S(C)(=O)=O)cc1 | 100 | 0.1 | 1.7 | 0.1 | 0.1 | – | – | – | – | – | – | – | – |
| CC(c1cccc(-c2cc(C(C)(C)S(C)(=O)=O)cc3cccnc23)c1)N(C(=O)c1ccc(F)cc1)c1ccc(S(C)(=O)=O)cc1 (single isomer, unassigned; enantiomer A) | 1400 | 7 | 51 | 15 | 5.8 | – | – | – | – | – | – | – | – |
| CC(C)(c1cc(-c2cccc(NC(=O)c3ccc(S(C)(=O)=O)cc3)c2)c2ncccc2c1)S(C)(=O)=O | 1000 | 2.3 | 10.6 | 1.7 | 1.2 | – | – | – | – | – | – | – | – |
| CC(C)(C#N)c1cc(-c2cccc(CN(C(=O)c3ccccc3)c3ccc(S(C)(=O)=O)cc3)c2)c2ncccc2c1 | 80 | 0.3 | 1 | 0.2 | 0.1 | – | – | – | – | – | – | – | – |
| CC(C)NC(=O)N(c1ccc(S(C)(=O)=O)cc1)C(C)c1cccc(-c2cc(C(C)(C)S(C)(=O)=O)cc3cccnc23)c1 (configuration not stated) | 400 | 1.9 | 25 | 1.8 | 0.7 | – | – | – | – | – | – | – | – |
| CC(C)(C#N)c1cc(-c2cccc(CN(C(=O)Nc3ccccc3)c3ccc(S(C)(=O)=O)cc3)c2)c2ncccc2c1 | 40 | 0.1 | 0.05 | 0.1 | 0.03 | – | – | – | – | – | – | – | – |
